Reference: PMC9468151, “Identification of a binding site on soluble RANKL that can be targeted to inhibit soluble RANK-RANKL interactions and treat osteoporosis” (Nature Communications, 2022)
“And” between values parts separate entries of the source, which are not always exact repeats. Equal values may be shown once.

What was measured:
L-RANKL = biological target: T1, L-RANKL (Rattus norvegicus, UniProt Q9ESE2, D175N); experiment: STD NMR binding assay with L-RANKL; settings: 100 μM protein, 5 mM compound
T1 construct: (3) mRANKL (sRANKL-GSGS-sRANKL, rat 159-318 aa); His6-sumo (N); made in house; host or cells: Escherichia coli BL21 (DE3)
T1 sequence (Q9ESE2 with tags, fused parts or gaps D175N): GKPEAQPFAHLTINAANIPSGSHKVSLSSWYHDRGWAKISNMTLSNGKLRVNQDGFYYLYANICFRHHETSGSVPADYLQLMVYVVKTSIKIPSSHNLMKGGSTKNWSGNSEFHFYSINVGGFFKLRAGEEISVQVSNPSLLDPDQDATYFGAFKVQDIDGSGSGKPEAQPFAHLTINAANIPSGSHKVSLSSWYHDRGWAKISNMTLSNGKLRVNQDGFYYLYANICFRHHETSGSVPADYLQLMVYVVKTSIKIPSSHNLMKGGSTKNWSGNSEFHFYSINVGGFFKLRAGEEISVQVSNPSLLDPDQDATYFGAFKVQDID
Procedure: For NMR studies, purified sRANKL or L-RANKL protein samples were buffer exchanged into PBS (Gbico, C10010500BT, pH7.4) using a Millipore spin column (1500 × g for 15 min at 4 °C, repeated six times, each time adding fresh PBS and discarding the flow-through). Protein concentration was determined using BCA method according to the procedure of Pierce^TM BCA Protein Assay Kit (Thermo Fisher Scientific). Compound S3-15 powder was dissolved in H2O as a concentration of 10 mM.
Protein saturation transfer difference (STD) experiments were performed on Bruker Avance III 500 (500 MHz) spectrometer (Columbia University) at 300 K using triple-resonance cryogenic probes optimized for proton detection. All experiments were performed using an independent sample for each experimental measurement as a 500 μL sample in NMR tubes with 100 μM protein and […] S3-15 in final concentration. Uniformly, for STD assay all samples were contained 50 μL protein, 200 μL S3-15 (10 mM in H2O), and 250 μL D2O; for S3-15 two-dimensional spectra reference, samples were 50 μL PBS, 200 μL S3-15 (10 mM in H2O) and 250 μL D2O.

T lymphocyte = T lymphocyte cell proliferation assay (CFSE, CD4+/CD8+ flow cytometry); type: cell-based, human
Procedure: T lymphocyte cell proliferation assay was performed according to a reported method[58] with some modification. Briefly, 5 × 10^6 cells /mL cells were stained 2.5 μM CFSE (Tonbo Biosciences) and incubated at 37 °C for 12 min. Then washed and discarded the supernatant and adjusted the CFSE stained cell to 1.75 × 10^6 cells /mL. Cells were diluted in 1640 completed medium containing 5 μg/mL anti-CD3 antibody (Tonbo Biosciences) to 3 × 10^5 cells/mL and seed in a 96-well plate or 24-well plate that pre-packaged 0.4 μg/well anti-CD28 antibody and 1.6 μg anti-CD28 antibody (24-well) (Tonbo Biosciences). Cells were then cultured for 3 days, 9 days or 12 days. Subsequently, the proportion of CD4^+ and CD8^+ cells was determined by flow cytometry (Beckman Coulter, FC500) according to manufacturer’s instruction of PE-Cyanine7 anti-Human CD8a and PE anti-Human CD4 antibodies (Tonbo Biosciences). Data analyzing was performed by using CXP software (Beckman Coulter, Supplementary Fig. 8).

[1] = Cancer donor 1, 3 day, S3-15 0.2
[2] = Cancer donor 1, 3 day, S3-15 10
[3] = Healthy donor 1, 3 day, S3-15 0.2
[4] = Healthy donor 1, 3 day, S3-15 1
[5] = Healthy donor 1, 3 day, S3-15 5
[6] = Healthy donor 1, 3 day, S3-15 10
[7] = Healthy donor 1, 12 day, S3-15 0.2
[8] = Healthy donor 1, 12 day, S3-15 1
[9] = Healthy donor 1, 12 day, S3-15 5
[10] = Healthy donor 1, 12 day, S3-15 10

Structure (SMILES): CC(=O)/C(=N\Nc1ccccc1C(=O)O)C(=O)Nc1ccccn1 [S3-15]
- STD-NMR binding to L-RANKL (mRANKL) (L-RANKL): low binding affinity
- CD8+ cells in total cells (%) (T lymphocyte; [1]): 14.3% and 18.21% and 16% and 17.82%
- CD8+cells in CFSE-cells (%) (T lymphocyte; [1]): 44.38% and 49.16% and 53.36% and 45.53%
- CFSE- cells in total cells (%) (T lymphocyte; [1]): 7.99% and 11.49% and 11.51% and 10.07%
- CD8+ cells in total cells (%) (T lymphocyte; Cancer donor 1, 3 day, S3-15 1): 15.56% and 19.33% and 22.39% and 19.99%
- CD8+cells in CFSE-cells (%) (T lymphocyte; Cancer donor 1, 3 day, S3-15 1): 49.17% and 50.09% and 56.77% and 50.35%
- CFSE- cells in total cells (%) (T lymphocyte; Cancer donor 1, 3 day, S3-15 1): 9.93% and 12.76% and 16.17% and 13.25%
- CD8+ cells in total cells (%) (T lymphocyte; Cancer donor 1, 3 day, S3-15 5): 18.34% and 20.27% and 20.25% and 13.63%
- CD8+cells in CFSE-cells (%) (T lymphocyte; Cancer donor 1, 3 day, S3-15 5): 56.42% and 54.7% and 55.11% and 51.68%
- CFSE- cells in total cells (%) (T lymphocyte; Cancer donor 1, 3 day, S3-15 5): 12.69% and 14.11% and 13.95% and 8.72%
- CD8+ cells in total cells (%) (T lymphocyte; [2]): 19.25% and 18.44% and 17.07% and 14.93%
- CD8+cells in CFSE-cells (%) (T lymphocyte; [2]): 49.18% and 47.91% and 49.38% and 44.39%
- CFSE- cells in total cells (%) (T lymphocyte; [2]): 12.56% and 11.54% and 10.9% and 9.12%
- CD4+cells in total cells (%) (T lymphocyte; [3]): 68.58% and 70.02% and 62.64% and 62.46%
- CD8+ cells in total cells (%) (T lymphocyte; [3]): 18.64% and 19.25% and 16.01% and 13.6%
- CD8+cells in CFSE-cells (%) (T lymphocyte; [3]): 20.07% and 33.28% and 21.3% and 26.99%
- CFSE- cells in total cells (%) (T lymphocyte; [3]): 25.93% and 25.33% and 20.8% and 18.33%
- CD4+cells in total cells (%) (T lymphocyte; [4]): 63.51% and 67.38% and 70.68% and 68.88%
- CD8+ cells in total cells (%) (T lymphocyte; [4]): 12.65% and 15.35% and 17.94% and 14.88%
- CFSE- cells in total cells (%) (T lymphocyte; [4]): 21.49% and 20.46% and 25.21% and 18.85%
- CD4+cells in total cells (%) (T lymphocyte; [5]): 68.14% and 68.06% and 70.19% and 66.42%
- CD8+ cells in total cells (%) (T lymphocyte; [5]): 12.78% and 16.22% and 14.24% and 15.07%
- CD8+cells in CFSE-cells (%) (T lymphocyte; [5]): 16% and 25.32% and 17.12% and 15.1%
- CFSE- cells in total cells (%) (T lymphocyte; [5]): 22.52% and 22.58% and 17.52% and 21.09%
- CD4+cells in total cells (%) (T lymphocyte; [6]): 72.21% and 54.01% and 61.69% and 61.53%
- CD8+ cells in total cells (%) (T lymphocyte; [6]): 17.68% and 18.86% and 15.27% and 10.99%
- CD8+cells in CFSE-cells (%) (T lymphocyte; [6]): 13.48% and 20.77% and 16.03%
- CFSE- cells in total cells (%) (T lymphocyte; [6]): 22.22% and 20.93% and 15.94%
- CD4+cells in total cells (%) (T lymphocyte; [7]): 25.25% and 26.11% and 25.81% and 23.7%
- CD8+ cells in total cells (%) (T lymphocyte; [7]): 16% and 15.3% and 20.01% and 21.66%
- CD8+cells in CFSE-cells (%) (T lymphocyte; [7]): 74.91% and 72.37% and 73.55% and 71.27%
- CFSE- cells in total cells (%) (T lymphocyte; [7]): 16.3% and 15.37% and 18.72% and 19.27%
- CD4+cells in total cells (%) (T lymphocyte; [8]): 25.53% and 24.4% and 24.71% and 25.6%
- CD8+ cells in total cells (%) (T lymphocyte; [8]): 15.74% and 17.31% and 17.44% and 15.99%
- CD8+cells in CFSE-cells (%) (T lymphocyte; [8]): 74.2% and 73.02% and 72.56% and 72.37%
- CFSE- cells in total cells (%) (T lymphocyte; [8]): 15.48% and 17.29% and 17.32% and 15.2%
- CD4+cells in total cells (%) (T lymphocyte; [9]): 25.95% and 25.52% and 26.76% and 24.64%
- CD8+ cells in total cells (%) (T lymphocyte; [9]): 18.18% and 19.04% and 19.74% and 15.99%
- CD8+cells in CFSE-cells (%) (T lymphocyte; [9]): 75% and 70.17% and 74.02% and 72.37%
- CFSE- cells in total cells (%) (T lymphocyte; [9]): 16.98% and 16.53% and 18.76% and 15.2%
- CD4+cells in total cells (%) (T lymphocyte; [10]): 24.55% and 25.9% and 26.53% and 28.64%
- CD8+ cells in total cells (%) (T lymphocyte; [10]): 25.46% and 18.53% and 18.26% and 16.63%
- CD8+cells in CFSE-cells (%) (T lymphocyte; [10]): 73.6% and 72.27% and 73.36% and 76.51%
- CFSE- cells in total cells (%) (T lymphocyte; [10]): 23.52% and 17.38% and 18.28% and 16.8%
